Test results reported in US20240148821A1, “PHARMACEUTICAL USE OF CYCLIC PEPTIDE COMPOUND” (CHUGAI SEIYAKU KABUSHIKI KAISHA, priority 2021, published 2024).
Numbered stars: 1 amine (or outer) side, 2 acyl side, 3 side chain; on linkers, the order of the positions; unused ones are H or OH. Bridge positions count the residues as written; N and C are the ends. Square brackets hold non-standard residues; d marks the D form. Peptide text beside a SMILES is read from it. * marks the point of attachment. hPhe(3-Cl-4-CF3) = N[C@@H](CCc1ccc(C(F)(F)F)c(Cl)c1)C(=O)O; hPhe(3-F,4-CF3) = N[C@@H](CCc1ccc(C(F)(F)F)c(F)c1)C(=O)O; X15 = O=C([C@H](CCc1cc(Cl)c(Cl)c(Cl)c1)N[*:1])[*:2]; X16 = CS(=O)(=O)c1ccc(CC[C@H](N[*:1])C(=O)[*:2])cc1; X18 = O=C([C@H](CCc1ccc(C(F)(F)F)cn1)N[*:1])[*:2]; X22 = O=C([C@H](CCc1ccc(C(F)F)nc1)N[*:1])[*:2]; NMePhe(4-Cl) = CN[C@@H](Cc1ccc(Cl)cc1)C(=O)O; X10 = C#Cc1cccc(C[C@H](N[*:1])C(=O)[*:2])c1; X3 = O=C(CN(C1CC2(C1)CC(F)(F)C2)[*:1])[*:2]; NMedβ3hAla = C[C@H](CC(=O)[*:2])N(C)[*:1]; NMeGly(cPent) = CN[C@H](C(=O)O)C1CCCC1; NMeGly(cBu) = CN[C@H](C(=O)O)C1CCC1; NMeCha = CN[C@@H](CC1CCCCC1)C(=O)O; Hyp = O=C(O)[C@@H]1C[C@@H](O)CN1; NMeChg = CN[C@H](C(=O)O)C1CCCCC1; NMeD = CN[C@@H](CC(=O)O)C(=O)O; NMeL = CN[C@@H](CC(C)C)C(=O)O; NMeV = CN[C@H](C(=O)O)C(C)C; d(β3hA) = C[C@@H](N)CC(=O)O; NMeC = CN[C@@H](CS)C(=O)O; NPhGly = O=C(O)CNc1ccccc1; NMeA = CN[C@@H](C)C(=O)O; NMeAib = CNC(C)(C)C(=O)O; Nle = CCCC[C@H](N)C(=O)O; Piperidide = C1CCN(*)CC1; Ac5c = NC1(C(=O)O)CCCC1; Aze = O=C(O)[C@@H]1CCN1; Bn = c1ccc(C*)cc1; Sar = CNCC(=O)O

Columns and labels:
[1] = tested on: Human pancreatic cancer cell line AsPC-1 (G12D mutation Kras); assay: AsPC-1 cell growth inhibition (AsPC-1 CGI); type: cell-based; details: read-out: AsPC-1 cell growth inhibition, 50% growth inhibitory concentration (IC50 value); 96 hours, CellTiter-Glo, values classified in ranges
Experimental: Test compounds were serially dilated with dimethyl sulfoxide, and 200 nL was then dispensed to a U-bottom 96-well plate using Labcyte Echo. […] The cell suspension was dispensed to a. plate containing a test compound at 100 μL per well and incubated at 37° C. in a 5% carbon dioxide gas incubator. 96 hours later, 80 μL of CellTiter-Glo (Promega) was added to each well and fluorescence was measured.

[2] = molecular target: protein-protein interaction between Kras and SOS1 (biotin-tagged human Kras loaded with GDP, His-tagged human SOS1) (Homo sapiens (Human), UniProt P01116, G12D); assay: Protein-protein interaction inhibition between Kras and SOS1 (KrasG12D-SOS PPI) using AlphaScreen; type: biochemical; details: AlphaScreen; biotin-tagged human Kras loaded with GDP, His-tagged human SOS1; read-out: KRAS G12D-SOS PPI IC50;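 further: kras produced in E. coli, Ni-coupled donor beads and streptavidin acceptor beads, excitation 680 nm with emission detected at 520–620 nm via singlet oxygen transfer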

Structure (SMILES)	IC50 [1] [nM]	IC50 [2] [nM]
CC[C@H](C)[C@@H]1NC(=O)[C@H](CC(C)C)N(C)C(=O)C[C@@H](C(=O)N2CCCCC2)N(C)C(=O)[C@H](C2CCCCC2)N(C)C(=O)C2(CCCC2)NC(=O)CN(C2CC3(C2)CC(F)(F)C3)C(=O)[C@H](CCc2ccc(C(F)(F)F)c(Cl)c2)NC(=O)CN(C)C(=O)[C@H](CC2CCCCC2)N(C)C(=O)CN(C)C(=O)CN(C)C1=O [Compound 2035, (11S,17S,26S,29S,33S,36S)-11-[2-[3-chloro-4-(trifluoromethyl)phenyl]ethyl]-36-cyclohexyl-17-(cyclohexylmethyl)-9-(2,2-difluorospiro[3.3]heptan-6-yl)-29-isobutyl-15,18,21,24,30,34,37-heptamethyl-26-[(1S)-1-methylpropyl]-33-(piperidine,-1-carbonyl)-6,9,12,15,18,21,24,27,30,34,37-undecazaspiro[4.33]octatriacontane-7,10,13,16,19,22,25,28,31,35,38-undecone] ([NMeL]I[Sar][Sar][NMeCha][Sar][hPhe(3-Cl-4-CF3)][X3][Ac5c][NMeChg][NMeD]-Piperidide; lactam N-11)	> 500	24
CC[C@H](C)[C@@H]1NC(=O)[C@H](CC(C)C)N(C)C(=O)C[C@@H](C(=O)N2CCCCC2)N(C)C(=O)[C@H](C2CCCCC2)N(C)C(=O)C2(CCCC2)NC(=O)[C@@H]2CCCN2C(=O)[C@H](CCc2ccc(S(C)(=O)=O)cc2)NC(=O)CN(C)C(=O)[C@H](CC2CCCCC2)N(C)C(=O)CN(C)C(=O)CN(C)C1=O [Compound 2058, (3S,9S,18S,21S,25S,28S,34S)-28-cyclohexyl-9-(cyclohexylmethyl)-21-isobutyl-7,10,13,16,22,26,29-heptamethyl-18-[(1S)-1-methylpropyl]-3-[2-(4-methylsulfonylphenyl)ethyl]-25-(piperidine-1-carbonyl)spiro[1,4,7,10,13,16,19,22,26,29,32-undecazabicyclo[32.3.0]heptatriacontane-31,1′-cyclopentane]-2,5,8,11,14,17,20,23,27,30,33-undecone] ([NMeL]I[Sar][Sar][NMeCha][Sar][X16]P[Ac5c][NMeChg][NMeD]-Piperidide; lactam N-11)	> 500	380
CC[C@H](C)[C@@H]1NC(=O)[C@H](CC(C)C)N(C)C(=O)C[C@@H](C(=O)N2CCCCC2)N(C)C(=O)[C@H](C2CCCC2)N(C)C(=O)C2(CCCC2)NC(=O)[C@@H]2CCCN2C(=O)[C@H](CCc2ccc(C(F)F)nc2)NC(=O)CN(C)C(=O)[C@H](CC2CCCCC2)N(C)C(=O)[C@@H]2CCN2C(=O)[C@H](C)N(C)C1=O [Compound 2060] ([NMeL]I[NMeA][Aze][NMeCha][Sar][X22]P[Ac5c][NMeGly(cPent)][NMeD]-Piperidide; lactam N-11 (inferred); C-terminus assumed)	> 500	110
CC[C@H](C)[C@@H]1NC(=O)[C@H](C)N(C)C(=O)C[C@@H](C(=O)N2CCCCC2)N(C)C(=O)[C@H](C(C)C)N(C)C(=O)C2(CCCC2)NC(=O)[C@@H]2CCCN2C(=O)[C@H](CCc2cc(Cl)c(Cl)c(Cl)c2)NC(=O)CN(C)C(=O)[C@H](CC2CCCCC2)N(C)C(=O)CN(C)C(=O)CN(C)C1=O [Compound 2068, (3S,9S,18S,21S,25S,28S,34S)-9-(cyclohexylmethyl)-28-isopropyl-7,10,13,16,21,22,26,29-octamethyl-18-[(1S)-1-methylpropyl]-25-(piperidine-1-carbonyl)-3-[2-(3,4,5-trichlorophenyl)ethyl]spiro[1,4,7,10,13,16,19,22,26,29,32-undecazabicyclo[32.3.0]heptatriacontane-31,1′-cylopentane]-2,5,8,11,14,17,20,23,27,30,33-undecone] ([NMeA]I[Sar][Sar][NMeCha][Sar][X15]P[Ac5c][NMeV][NMeD]-Piperidide; lactam N-11)	> 500	1.7
CC[C@H](C)[C@@H]1NC(=O)[C@H](CC(C)C)N(C)C(=O)C[C@@H](C(=O)N2CCCCC2)N(C)C(=O)[C@H](C2CCCC2)N(C)C(=O)C2(CCCC2)NC(=O)[C@@H]2CCCN2C(=O)[C@H](CCc2ccc(C(F)(F)F)cn2)NC(=O)CN(C)C(=O)[C@H](CC2CCCCC2)N(C)C(=O)[C@@H]2CCN2C(=O)[C@H](C)N(C)C1=O [Compound 2069] ([NMeL]I[NMeA][Aze][NMeCha][Sar][X18]P[Ac5c][NMeGly(cPent)][NMeD]-Piperidide; lactam N-11 (inferred); C-terminus assumed)	> 500	78
CC[C@H](C)[C@@H]1NC(=O)[C@H](CC(C)C)N(C)C(=O)C[C@@H](C)NC(=O)[C@H](CC(C)C)N(C)C(=O)C2(CCCC2)NC(=O)[C@@H]2C[C@@H](OCc3ccccc3)CN2C(=O)[C@H](CCc2ccc(C(F)(F)F)c(F)c2)NC(=O)CN(C)C(=O)[C@H](CC2CCCCC2)N(C)C(=O)CN(C)C(=O)CN(C)C1=O [Compound 2116, (3S,9S,18S,21S,25R,28S,34S,36R)-36-benzyloxy-9-(cylohexylmethyl)-3-[2-[3-fluoro-4-(trifluoromethyl)phenyl]ethyl]-21,28-diisobutyl-7,10,13,16,22,25,29-heptamethyl-18-[(1S)-1-methylpropyl]spiro[1,4,7,10,13,16,19,22,26,29,32-undecazabicyclo[32.3.0]heptatriacontane-31,1′-cyclopentane]-2,5,8,11,14,17,20,23,27,30,33-undecone] (cyclo([Ac5c][NMeL][d(β3hA)][NMeL]I[Sar][Sar][NMeCha][Sar][hPhe(3-F,4-CF3)][Hyp](Bn)))	> 500	110
C#Cc1cccc(C[C@@H]2NC(=O)CN(C)C(=O)[C@H](Cc3ccc(Cl)cc3)N(C)C(=O)CN(C)C(=O)CN(C)C(=O)[C@H]([C@@H](C)CC)NC(=O)[C@H](CC(C)C)N(C)C(=O)C[C@@H](C(=O)N3CCCCC3)N(C)C(=O)[C@H](CC(C)C)NC(=O)C(C)(C)N(C)C(=O)[C@H](CCCC)NC2=O)c1 [Compound 2142, (3S,9S,12S,18S,27S,30S,34S)-9-butyl-18-[(4-chlorophenyl)methyl]-12-[(3-ethynylphenyl)methyl]-3,30-diisobutyl-1,6,6,7,16,19,22,25,31-nonamethyl-27-[(1S)-1-methylpropyl]-34-(piperidine-1-carbonyl)-1,4,7,10,13,16,19,22,25,28,31-undecazacyclotetratriacontane-2,5,8,11,14,17,20,23,26,29,32-undecone] ([NMeL]I[Sar][Sar][NMePhe(4-Cl)][Sar][X10][Nle][NMeAib]L[NMeD]-Piperidide; lactam N-11)	> 500	44
CC[C@H](C)[C@@H]1NC(=O)[C@H](C)N(C)C(=O)C[C@@H](C)N(C)C(=O)[C@H](C2CCC2)N(C)C(=O)C2(CCCC2)NC(=O)CN(c2ccccc2)C(=O)[C@H](CCc2ccc(C(F)(F)F)c(Cl)c2)NC(=O)CN(C)C(=O)[C@H](CC2CCCCC2)N(C)C(=O)CN(C)C(=O)CN(C)C1=O [Compound 2143] (cyclo([Ac5c][NMeGly(cBu)][NMedβ3hAla][NMeA]I[Sar][Sar][NMeCha][Sar][hPhe(3-Cl-4-CF3)][NPhGly]))	> 500	41
CC[C@H](C)[C@@H]1NC(=O)[C@H](C)N(C)C(=O)C[C@@H](C)N(C)C(=O)[C@H](C2CCC2)N(C)C(=O)C(C)(C)N(C)C(=O)CN(c2ccccc2)C(=O)[C@H](CCc2ccc(C(F)(F)F)c(Cl)c2)NC(=O)CN(C)C(=O)[C@H](CC2CCCCC2)N(C)C(=O)CN(C)C(=O)CN(C)C1=O [Compound 2145] (cyclo(I[Sar][Sar][NMeCha][Sar][hPhe(3-Cl-4-CF3)][NPhGly][NMeAib][NMeGly(cBu)][NMedβ3hAla][NMeA]))	> 500	22
CC[C@H](C)[C@@H]1NC(=O)[C@H](C)N(C)C(=O)C[C@@H](C(=O)N2CCCCC2)N(C)C(=O)[C@H](C2CCC2)N(C)C(=O)C(C)(C)N(C)C(=O)CN(c2ccccc2)C(=O)[C@H](CCc2ccc(C(F)(F)F)c(Cl)c2)NC(=O)CN(C)C(=O)[C@H](CC2CCCCC2)N(C)C(=O)CN(C)C(=O)CN(C)C1=O [Compound 2150] ([NMeA]I[Sar][Sar][NMeCha][Sar][hPhe(3-Cl-4-CF3)][NPhGly][NMeAib][NMeGly(cBu)][NMeD]-Piperidide; lactam N-11)	> 500	5.7
CC[C@H](C)[C@@H]1NC(=O)[C@H](C)N(C)C(=O)C[C@@H](C(=O)N2CCCCC2)N(C)C(=O)[C@H](C2CCC2)N(C)C(=O)C2(CCCC2)NC(=O)CN(c2ccccc2)C(=O)[C@H](CCc2ccc(C(F)(F)F)c(Cl)c2)NC(=O)CN(C)C(=O)[C@H](CC2CCCCC2)N(C)C(=O)CN(C)C(=O)CN(C)C1=O [Compound 2151] ([NMeA]I[Sar][Sar][NMeCha][Sar][hPhe(3-Cl-4-CF3)][NPhGly][Ac5c][NMeGly(cBu)][NMeD]-Piperidide; lactam N-11)	> 500	2.5
CC[C@H](C)[C@@H]1NC(=O)CSC[C@@H](C(=O)N(C)C)N(C)C(=O)[C@H](C2CCCC2)N(C)C(=O)C2(CCCC2)NC(=O)[C@@H]2CCCN2C(=O)[C@H](CCc2ccc(C(F)(F)F)c(Cl)c2)NC(=O)CN(C)C(=O)[C@H](CC2CCCCC2)N(C)C(=O)CN(C)C(=O)CN(C)C1=O [Compound 2172, (3S,9S,18S,24R,27S,33S)-18-[(2S)-butan-2-yl]-3-[2-[3-chloro-4-(trifluoromethyl)phenyl]ethyl]-9-(cyclohexylmethyl)-27-cyclopentyl-N,N,7,10,13,16,25,28-octamethyl-2,5,8,11,14,17,20,26,29,32-decaoxospiro[22-thia-1,4,7,10,13,16,19,25,28,31-decazabicyclo[31.3.0]hexatriacontane-30,1′-cyclopentane]-24-carboxamide] ({CH2CO}-I[Sar][Sar][NMeCha][Sar][hPhe(3-Cl-4-CF3)]P[Ac5c][NMeGly(cPent)][NMeC]-NMe2; thioether N-10)	> 500	14
